Like-named read-outs stand apart in the source and are kept apart here.
Tests used:
[1] = test system: HEK293 cells; experiment: alamarBlue cytotoxicity assessment in HEK293 cells; assay type: cell-based, human; details: for Mean 1 (viability; 0 µM = 100): Fig. S2, n = 3; for Tox [% of ctrl.]: HEK293, alamarBlue, 16 h, concentration not given
Summary of the method: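 HEK293 cells exposed 16 h to compound at 1.25, 2.5, 5, 7.5 and 10 µM, with DMSO as vehicle control. Viability read by alamarBlue; means ± SD of three independent experiments.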

[2] = test system: ubiquitin-proteasome system; experiment: Ub-G76V-GFP reporter degradation in U2OS cells; assay type: cell-based; details: U2OS cells, Fig. S3
From the text: We next examined whether the selected RUN compounds activate the NFE2L1 pathway in a stress-independent manner, while preserving normal ubiquitin-dependent proteasomal degradation. This distinction is crucial, as the therapeutic benefit of NFE2L1 activation lies in its ability to alleviate proteotoxic stress and target disease-related proteins for degradation without compromising normal proteostasis. To assess this, U2OS cells stably expressing the short-lived fluorescent reporter Ub-G76V-GFP were treated with various concentrations of RUN compounds. […] We also examined whether compound-induced activation of NFE2L1 could be attributed to the generation of reactive oxygen species (ROS). To test this, the 3×PSMA4-ARE-LUC reporter assay was performed in the presence or absence of the antioxidant N-acetyl-L-cysteine (NAC). A decrease in reporter activity upon NAC treatment would indicate pathway activation through oxidative stress.
RUN compound (5 µM) for 8 hours. Fluorescence intensity was normalized to cell viability (measured by the alamarBlue assay) and compared to vehicle control (DMSO). Unlike the […]
as means ± SD from three independent experiments (n = 3). Statistical analysis was performed using a multiple unpaired t-test with Welch’s correction, with adjustment for multiple comparisons by the Holm–Šídák method (α = 0.05). ****p<0.0001. Detailed results of the analysis are shown in Supplementary Table S14. […]
2.4 Monitoring protein degradation using UbG76V-GFP reporter cells
U2OS cells stably expressing the Ub-G76V-GFP reporter were seeded into 96-well plates at and cultured overnight under standard conditions. On the following day, cells were treated with the indicated test compounds or DMSO vehicle control for 8 hours. After treatment, GFP fluorescence intensity was measured, providing a readout of proteasome-dependent degradation of the Ub-G76V-GFP substrate. Cell viability was then assessed in the same wells using the alamarBlue assay according to the manufacturer’s protocol. Viability values were used for normalization of fluorescence data to account for differences in cell number. Accumulation of GFP signal relative to DMSO-treated controls was interpreted as reduced degradation of UPS substrates, indicating potential effects of the compounds on the natural protein turnover.
Statistical comparison of RUN compounds with ASC-JM17 was performed using a multiple unpaired t-test with Welch’s correction, with adjustment for multiple comparisons by the Holm–Šídák method (α = 0.05) in GraphPad Prism (v 10.6.1). […]
RNA was extracted using […]
the RNeasy® Plus Micro Kit according to the manufacturer’s instructions. Complementary DNA (cDNA) was synthesized from RNA using either t he TATAA GrandScript cDNA Supermix (TATAA Biocenter) or the QuantiTect® Reverse Transcription Kit (Qiagen), following the respective protocols. Quantitative RT -PCR was performed on a LightCycler® 480 instrument (Roche Life Science) using the TATAA SYBR® Gr andMaster® Mix (TATAA […]
Biocenter). Gene expression levels were normalized to RPLP0, and relative expression was calculated using the ΔΔCt method. Data were expressed as fold change relative to the corresponding DMSO control. Statistical analysis of changes in gene expression was performed w ith a ratio paired t-test corrected for multiple comparisons using Holm-Šídák's method (α = 0.05) in GraphPad Prism (v 10.6.1).
Table S1. Sequences of primer pairs used in the qRT -PCR analysis of gene expression.

[3] = test system: SNCA-EGFP; experiment: SNCA-EGFP degradation in SH-SY5Y cells; assay type: cell-based, human
Experimental: This reporter is prone to aggregation because of its slow protein turnover. To assess compound efficacy, we measured the fluorescence signal of GFP-tagged synuclein within aggregates.
The GFP fluorescence signal was then normalized to that of the DMSO control and the cell number. The experiment was performed in at least five biological replicates. Statistical analysis was performed using paired t-tests with Holm–Šídák correction for multiple comparisons (α = […]
SH-SY5Y cells stably expressing SNCA-EGFP were seeded on a plate and allowed to […]
tadalafil (5 µM), or RUN compounds at a concentration of 1 µM or treated with an equivalent volume of DMSO dissolved in buffer as a vehicle control. The treatment was performed for 16 hours and then fluorescence was measured. The GFP signal intensity was normalized to both the DMSO control and the cell count.

[4] = SH-SY5Y, SNCA-EGFP degron, Figure S7

## COc1ccc(/C=C2\CC(N)C/C(=C\c3ccc(OC)c(OC)c3)C2=O)cc1OC (stereo not drawn) [RUN-81]
[1]; 5 uM
  Mean 1 (viability; 0 µM = 100): 80.55
[1]; 10 uM
  Mean 1 (viability; 0 µM = 100): 79.08
[1]; 1,125 uM
  Mean 1 (viability; 0 µM = 100): 98.04
[1]; 2,5 uM
  Mean 1 (viability; 0 µM = 100): 92.22
[1]; 7,5 uM
  Mean 1 (viability; 0 µM = 100): 79.02
[1]
  Tox [% of ctrl.]: 84% of ctrl.
[2]
  Ub-G76V-GFP reporter assay, mean: 1.14
[3]; [4]
  Geometric mean of ratios (paired t tests, Treatment vs Control = 100): -11.53
  Geometric mean, Treatment (Control = 100): 88.47

## COc1ccc(/C=C2\CC(NC(=O)c3ccccn3)C/C(=C\c3ccc(OC)c(OC)c3)C2=O)cc1OC (stereo not drawn) [RUN-94]
[1]; 5 uM
  Mean 1 (viability; 0 µM = 100): 86.01
[1]; 10 uM
  Mean 1 (viability; 0 µM = 100): 74.87
[1]; 1,125 uM
  Mean 1 (viability; 0 µM = 100): 105.6
[1]; 2,5 uM
  Mean 1 (viability; 0 µM = 100): 101.6
[1]; 7,5 uM
  Mean 1 (viability; 0 µM = 100): 75.79
[1]
  Tox [% of ctrl.]: 78% of ctrl.
[2]
  Ub-G76V-GFP reporter assay, mean: 1.19
[3]; [4]
  Geometric mean of ratios (paired t tests, Treatment vs Control = 100): -7.67
  Geometric mean, Treatment (Control = 100): 92.33

## COc1ccc(/C=C2\CC(NC(=O)C3CCCC3)C/C(=C\c3ccc(OC)c(OC)c3)C2=O)cc1OC (stereo not drawn) [RUN-89]
[1]; 5 uM
  Mean 1 (viability; 0 µM = 100): 76.01
[1]; 10 uM
  Mean 1 (viability; 0 µM = 100): 68.72
[1]; 1,125 uM
  Mean 1 (viability; 0 µM = 100): 100.7
[1]; 2,5 uM
  Mean 1 (viability; 0 µM = 100): 91.49
[1]; 7,5 uM
  Mean 1 (viability; 0 µM = 100): 71.31
[1]
  Tox [% of ctrl.]: 81% of ctrl.
[2]
  Ub-G76V-GFP reporter assay, mean: 1.17
[3]
  Geometric mean of ratios (paired t tests, Treatment vs Control = 100): -11.61
[3]; [4]
  Geometric mean, Treatment (Control = 100): 88.39
